Test results taken from patent US8658646B2, “Pyrrolopyrazine kinase inhibitors” (Hoffmann-LaRoche Inc., priority 2011, dated 2014).

The molecules below were run against T1, recombinant human SYK360-635 (Homo sapiens, UniProt P43405) (assay: Determination of IC50 of Spleen Tyrosine Kinase (SYK) inhibition, 33P ATP filtration assay). Conditions: SYK aa 360-635 0.5 nM; ATP 20 μM, peptide 5 μM, 0.1% BSA; read-out: SYK_ENZYME_FILTRATION/v1, BSA.
T1 construct: made in house
Format: biochemical
Experimental: All concentrations were final in the reaction mixture and all incubations were carried at room temperature. […] SYK Assay Information Determination of IC50 of Spleen Tyrosine Kinase (SYK) Inhibition:
SYK kinase assay is a standard kinase assay adapted to a 96 well plate format. This assay is performed in 96-well format for IC50 determination with 8 samples which represented 10 half log dilutions and a 40 μL reaction volume. The assay measures the incorporation of radiolabeled ^33P γATP into an N-terminally biotinylated peptide substrate, derived from naturally occurring phosphoacceptor consensus sequence (Biotin-11aa DY*E). […] Experimental Method:
DMSO and the mixture was incubated for 10 min at RT.
The kinase reaction was initiated by the addition of 10 μL 4× substrate cocktail containing the DYE peptide substrate [0 or 5 μM], ATP [20 μM] and ^33PγATP [2 μCi/r×n]. After incubation at 30° C. for 15 min, the reaction was terminated by the transfer of 25 μL pf the reaction sample to a 96 well 0.65 μm Millipore MADVNOB membrane/plate containing 200 μL 5 mM EDTA and 20% Streptavidine coated beads in PBS.
The unbound radionucleotides were washed under vacuum with 3×250 μL 2M NaCl; 2×250 μL 2M NaCl+1% phosphoric acid; 1×250 μL H2O. After the last wash membrane/plates were transferred to an adaptor plate, heat dried for 15 min at 60° C., and 50 μL scintillation cocktail was added to each well and 4 h later the amount of radioactivity was counted in a top counter.
An IC50 of 8.05 nM was found for `Cn1nc(-c2cnc3[nH]cc(C(=O)NC(C)(CO)CO)c3n2)c2ccc(F)cc21` [Example I-383, 2-(6-Fluoro-1-methyl-1H-indazol-3-yl)-5H-pyrrolo[2,3-b]pyrazine-7-carboxylic acid (2-hydroxy-1-hydroxymethyl-1-methyl-ethyl)-amide] in this work. An IC50 of 3.75 nM was found for `Cn1nc(-c2cnc3[nH]cc(C(=O)NC4(C)CCCC4)c3n2)c2ccc(F)cc21` [Example I-384, 2-(6-Fluoro-1-methyl-1H-indazol-3-yl)-5H-pyrrolo[2,3-b]pyrazine-7-carboxylic acid (1-methyl-cyclopentyl)-amide] in this work. An IC50 of 104 nM was found for `Cn1nc(-c2cnc3[nH]cc(C(=O)NC4(C)COC4)c3n2)c2ccc(F)cc21` [Example I-386, 2-(6-Fluoro-1-methyl-1H-indazol-3-yl)-5H-pyrrolo[2,3-b]pyrazine-7-carboxylic acid (3-methyl-oxetan-3-yl)-amide] in this work. An IC50 of 31.7 nM was found for `Cn1nc(-c2cnc3[nH]cc(C(=O)NC4(C#N)CC4)c3n2)c2ccc(F)cc21` [Example I-387, 2-(6-Fluoro-1-methyl-1H-indazol-3-yl)-5H-pyrrolo[2,3-b]pyrazine-7-carboxylic acid (1-cyano-cyclopropyl)-amide] in this work. An IC50 of 63.8 nM was found for `Cn1nc(-c2cnc3[nH]cc(C(=O)NC(C)(C)c4ccccc4)c3n2)c2ccc(Cl)cc21` [Example I-388, 2-(6-Chloro-1-methyl-1H-indazol-3-yl)-5H-pyrrolo[2,3-b]pyrazine-7-carboxylic acid (1-methyl-1-phenyl-ethyl)-amide] in this work. An IC50 of 183 nM was found for `C[C@H](NC(=O)c1c[nH]c2ncc(-c3nn(C)c4cc(Cl)ccc34)nc12)c1ccccc1` [Example I-389, 2-(6-Chloro-1-methyl-1H-indazol-3-yl)-5H-pyrrolo[2,3-b]pyrazine-7 carboxylic acid ((S)-1-phenyl-ethyl)-amide] in this work. An IC50 of 42.4 nM was found for `Cn1nc(-c2cnc3[nH]cc(C(=O)NC(C)(C)C(F)(F)F)c3n2)c2ccc(Cl)cc21` [Example I-390, 2-(6-Chloro-1-methyl-1H-indazol-3-yl)-5H-pyrrolo[2,3-b]pyrazine-7-carboxylic acid (2,2,2-trifluoro-1,1-dimethyl-ethyl)-amide] in this work. An IC50 of 8.68 nM was found for `CCC(C)(C)NC(=O)c1c[nH]c2ncc(-c3nn(C)c4cc(Cl)ccc34)nc12` [Example I-391, 2-(6-Chloro-1-methyl-1H-indazol-3-yl)-5H-pyrrolo[2,3-b]pyrazine-7-carboxylic acid (1,1-dimethyl-propyl)-amide] in this work. An IC50 of 10.2 nM was found for `Cn1nc(-c2cnc3[nH]cc(C(=O)NC4(C)CCCCC4)c3n2)c2ccc(F)cc21` [Example I-392, 2-(6-Fluoro-1-methyl-1H-indazol-3-yl)-5H-pyrrolo[2,3-b]pyrazine-7-carboxylic acid (1-methyl-cyclohexyl)-amide] in this work. An IC50 of 492 nM was found for `Cn1nc(-c2cnc3[nH]cc(C(=O)NC(C)(C)C(C)(C)N)c3n2)c2ccc(F)cc21` [Example I-393, 2-(6-Fluoro-1-methyl-1H-indazol-3-yl]-5H-pyrrolo[2,3-b]pyrazine-7-carboxylic acid (2-amino-1,1,2-trimethyl-propyl)-amide] in this work. An IC50 of 4.38 nM was found for `Cn1nc(-c2cnc3[nH]cc(C(=O)NC(C)(C)C)c3n2)c2ccc(C#N)cc21` [Example I-394, 2-(6-Cyano-1-methyl-1H-indazol-3-yl)-5H-pyrrolo[2,3-b]pyrazine-7-carboxylic acid tert-butylamide] in this work. An IC50 of 2.27 nM was found for `Cn1nc(-c2cnc3[nH]cc(C(=O)NC4(C)CC4)c3n2)c2ccc(Cl)cc21` [Example I-395, 2-(6-Chloro-1-methyl-1H-indazol-3-yl)-5H-pyrrolo[2,3-b]pyrazine-7-carboxylic acid (1-methyl-cyclopropyl)-amide] in this work. An IC50 greater than 10000 nM was found for `Cn1nc(-c2cnc3[nH]cc(C(=O)Nc4ccccc4)c3n2)c2ccc(Cl)cc21` [Example I-396, 2-(6-Chloro-1-methyl-1H-indazol-3-yl)-5H-pyrrolo[2,3-b]pyrazine-7-carboxylic acid phenylamide] in this work. An IC50 of 219 nM was found for `Cn1nc(-c2cnc3[nH]cc(C(=O)NC(C)(C)CN)c3n2)c2ccc(Cl)cc21` [Example I-397, 2-(6-Chloro-1-methyl-1H-indazol-3-yl)-5H-pyrrolo[2,3-b]pyrazine-7-carboxylic acid (2-amino-1,1-dimethyl-ethyl)-amide] in this work. An IC50 of 12.2 nM was found for `Cn1nc(-c2cnc3[nH]cc(C(=O)NC(C)(C)CO)c3n2)c2ccc(C#N)cc21` [Example I-398, 2-(6-Cyano-1-methyl-1H-indazol-3-yl)-5H-pyrrolo[2,3-b]pyrazine-7-carboxylic acid (2-hydroxy-1,1-dimethyl-ethyl)-amide] in this work. An IC50 of 8.57 nM was found for `Cn1nc(-c2cnc3[nH]cc(C(=O)NC(C)(C)CCO)c3n2)c2ccc(F)cc21` [Example I-400, 2-(6-Fluoro-1-methyl-1H-indazol-3-yl)-5H-pyrrolo[2,3-b]pyrazine-7-carboxylic acid (3-hydroxy-1,1-dimethyl-propyl)-amide] in this work. An IC50 of 18.5 nM was found for `Cn1nc(-c2cnc3[nH]cc(C(=O)NC(C)(C)C4CC4)c3n2)c2ccc(Cl)cc21` [Example I-401, 2-(6-Chloro-1-methyl-1H-indazol-3-yl)-5H-pyrrolo[2,3-b]pyrazine-7-carboxylic acid (1-cyclopropyl-1-methyl-ethyl)-amide] in this work. An IC50 of 101 nM was found for `Cn1nc(-c2cnc3[nH]cc(C(=O)N[C@H]4CC[C@@H](N)CC4)c3n2)c2cc(OC(F)F)ccc21` [Example I-402, 2-(5-Difluoromethoxy-1-methyl-1H-indazol-3-yl)-5H-pyrrolo[2,3-b]pyrazine-7-carboxylic acid (cis-4-amino-cyclohexyl)-amide] in this work. An IC50 of 13.6 nM was found for `Cn1nc(-c2cnc3[nH]cc(C(=O)NC4CCCC(N)C4)c3n2)c2ccc(Cl)cc21` (stereo not drawn) [Example I-403, 2-(6-Chloro-1-methyl-1H-indazol-3-yl)-5H-pyrrolo[2,3-b]pyrazine-7-carboxylic acid (3-amino-cyclohexyl)-amide] in this work. An IC50 greater than 10000 nM was found for `Cn1nc(-c2cnc3[nH]cc(C(=O)Nc4cccc(C#N)c4)c3n2)c2ccc(Cl)cc21` [Example I-404, 2-(6-Chloro-1-methyl-1H-indazol-3-yl)-5H-pyrrolo[2,3-b]pyrazine-7-carboxylic acid (3-cyano-phenyl)-amide] in this work. An IC50 of 186 nM was found for `Cn1nc(-c2cnc3[nH]cc(C(=O)Nc4cccnc4)c3n2)c2ccc(Cl)cc21` [Example I-405, 2-(6-Chloro-1-methyl-1H-indazol-3-yl)-5H-pyrrolo[2,3-b]pyrazine-7-carboxylic acid pyridin-3-ylamide] in this work. An IC50 of 87.3 nM was found for `Cn1nc(-c2cnc3[nH]cc(C(=O)NC4(C)CCNC4)c3n2)c2ccc(F)cc21` (stereo not drawn) [Example I-406, 2-(6-Fluoro-1-methyl-1H-indazol-3-yl)-5H-pyrrolo[2,3-b]pyrazine-7-carboxylic acid (3-methyl-pyrrolidin-3-yl)-amide] in this work. An IC50 of 5.8 nM was found for `Cn1nc(-c2cnc3[nH]cc(C(=O)NC(C)(C)C#N)c3n2)c2ccc(Cl)cc21` [Example I-407, 2-(6-Chloro-1-methyl-1H-indazol-3-yl)-5H-pyrrolo[2,3-b]pyrazine-7-carboxylic acid (cyano-dimethyl-methyl)-amide] in this work. An IC50 of 52.7 nM was found for `Cn1nc(-c2cnc3[nH]cc(C(=O)NC(C)(C)CCCN)c3n2)c2ccc(F)cc21` [Example I-408, 2-(6-Fluoro-1-methyl-1H-indazol-3-yl)-5H-pyrrolo[2,3-b]pyrazine-7-carboxylic acid (4-amino-1,1-dimethyl-butyl)-amide] in this work. An IC50 of 317 nM was found for `Cn1nc(-c2cnc3[nH]cc(C(=O)NC4(C)CNC4)c3n2)c2ccc(F)cc21` [Example I-409, 2-(6-Fluoro-1-methyl-1H-indazol-3-yl)-5H-pyrrolo[2,3-b]pyrazine-7-carboxylic acid (3-methyl-azetidin-3-yl)-amide] in this work. An IC50 of 4.7 nM was found for `Cn1nc(-c2cnc3[nH]cc(C(=O)NC(C)(C)C)c3n2)c2ccccc21` [Example I-410, 2-(1-Methyl-1H-indazol-3-yl)-5H-pyrrolo[2,3-b]pyrazine-7-carboxylic acid tert-butylamide] in this work. An IC50 of 95.4 nM was found for `CC(C)(C)NC(=O)c1c[nH]c2ncc(-c3n[nH]c4cc(F)ccc34)nc12` [Example I-411, 2-(6-Fluoro-1H-indazol-3-yl)-5H-pyrrolo[2,3-b]pyrazine-7-carboxylic acid tert-butylamide] in this work. An IC50 of 73.6 nM was found for `Cn1nc(-c2cnc3[nH]cc(C(=O)NC(C)(C)C)c3n2)c2cc(C(F)(F)F)ccc21` [Example I-412, 2-(1-Methyl-5-trifluoromethyl-1H-indazol-3-yl)-5H-pyrrolo[2,3-b]pyrazine-7-carboxylic acid tert-butylamide] in this work. An IC50 of 34.6 nM was found for `CC(O)C(C)(C)NC(=O)c1c[nH]c2ncc(-c3nn(C)c4cc(Cl)ccc34)nc12` (stereo not drawn) [Example I-413, 2-(6-Chloro-1-methyl-1H-indazol-3-yl)-5H-pyrrolo[2,3-b]pyrazine-7-carboxylic acid (2-hydroxy-1,1-dimethyl-propyl)-amide] in this work. An IC50 of 5.25 nM was found for `CC(C)(CO)NC(=O)c1c[nH]c2ncc(-c3n[nH]c4cc(Cl)ccc34)nc12` [Example I-414, 2-(6-Chloro-1H-indazol-3-yl)-5H-pyrrolo[2,3-b]pyrazine-7-carboxylic acid (2-hydroxy-1,1-dimethyl-ethyl)-amide] in this work. An IC50 of 322 nM was found for `Cn1nc(-c2cnc3[nH]cc(C(=O)NC(C)(C)CCN)c3n2)c2ccc(F)cc21` [Example I-415, 2-(6-Fluoro-1-methyl-1H-indazol-3-yl)-5H-pyrrolo[2,3-b]pyrazine-7-carboxylic acid (3-amino-1,1-dimethyl-propyl)-amide] in this work. An IC50 of 1.95 nM was found for `Cn1nc(-c2cnc3[nH]cc(C(=O)N[C@]4(C)CC[C@@H](N)CC4)c3n2)c2ccc(F)cc21` [Example I-416, 2-(6-Fluoro-1-methyl-1H-indazol-3-yl)-5H-pyrrolo[2,3-b]pyrazine-7-carboxylic acid (trans-4-amino-1-methyl-cyclohexyl)-amide] in this work. An IC50 of 787 nM was found for `Cn1nc(-c2cnc3[nH]cc(C(=O)N[C@]4(C)CC[C@H](N)CC4)c3n2)c2ccc(F)cc21` [Example I-417, 2-(6-Fluoro-1-methyl-1H-indazol-3-yl)-5H-pyrrolo[2,3-b]pyrazine-7-carboxylic acid (cis-4-amino-1-methyl-cyclohexyl)-amide] in this work.
